Data taken from PubChem BioAssay (NCI).
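96-well plates; 48 h exposure; 5 concentrations. Endpoints by linear interpolation between flanking doses. Not reached: highest tested concentration assigned. Abbreviation: GI50, concentration required for 50% inhibition of growth. The concentration for full growth arrest is given as TGI.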

What was measured:
Test in all cases: growth of human tumour cells (NCI), 48 h
SF-268 CNS = test system: SF-268 CNS
NCI-H23 lung = test system: NCI-H23 lung
HOP-92 NSCLC = test system: HOP-92 NSCLC
UACC-62 melanoma = test system: UACC-62 melanoma
A498 renal = test system: A498 renal
KM12 colon = test system: KM12 colon
MCF7 breast = test system: MCF7 breast
HOP-62 NSCLC = test system: HOP-62 NSCLC
UO-31 renal = test system: UO-31 renal
MDA-MB-435 = test system: MDA-MB-435
HT29 colon = test system: HT29 colon
NCI/ADR-RES ovarian = test system: NCI/ADR-RES ovarian
MOLT-4 leukemia = test system: MOLT-4 leukemia
EKVX NSCLC = test system: EKVX NSCLC
SNB-75 CNS = test system: SNB-75 CNS
A549 NSCLC = test system: A549 NSCLC
UACC-257 melanoma = test system: UACC-257 melanoma
BT-549 breast = test system: BT-549 breast
SK-MEL-5 melanoma = test system: SK-MEL-5 melanoma
SNB-19 CNS = test system: SNB-19 CNS
IGROV1 ovarian = test system: IGROV1 ovarian
MDA-MB-231 breast = test system: MDA-MB-231 breast
DU-145 prostate = test system: DU-145 prostate
HCT-116 colon = test system: HCT-116 colon
RPMI-8226 leukemia = test system: RPMI-8226 leukemia
K-562 leukemia = test system: K-562 leukemia
SK-MEL-2 melanoma = test system: SK-MEL-2 melanoma
TK-10 renal = test system: TK-10 renal
OVCAR-5 ovarian = test system: OVCAR-5 ovarian
OVCAR-3 ovarian = test system: OVCAR-3 ovarian
RXF 393 renal = test system: RXF 393 renal
OVCAR-8 ovarian = test system: OVCAR-8 ovarian
COLO 205 colon = test system: COLO 205 colon
SR leukemia = test system: SR leukemia
NCI-H522 lung = test system: NCI-H522 lung
NCI-H226 lung = test system: NCI-H226 lung
SW-620 colon = test system: SW-620 colon
T-47D breast = test system: T-47D breast
M14 melanoma = test system: M14 melanoma
SF-295 CNS = test system: SF-295 CNS
NCI-H460 lung = test system: NCI-H460 lung
SK-OV-3 ovarian = test system: SK-OV-3 ovarian
CAKI-1 renal = test system: CAKI-1 renal
SK-MEL-28 melanoma = test system: SK-MEL-28 melanoma
LOX IMVI melanoma = test system: LOX IMVI melanoma
SF-539 CNS = test system: SF-539 CNS
PC-3 prostate = test system: PC-3 prostate
U251 CNS = test system: U251 CNS
HS 578T breast = test system: HS 578T breast
CCRF-CEM leukemia = test system: CCRF-CEM leukemia
786-0 renal = test system: 786-0 renal
MALME-3M melanoma = test system: MALME-3M melanoma
ACHN renal = test system: ACHN renal
HL-60(TB) leukemia = test system: HL-60(TB) leukemia
HCT-15 colon = test system: HCT-15 colon
HCC-2998 colon = test system: HCC-2998 colon
SN12C renal = test system: SN12C renal

SMILES: CN1CCN(Cc2ccc(NC(=O)c3cncc(C#Cc4cncc5ncccc45)c3)cc2C(F)(F)F)CC1
- GI50 (SF-268 CNS): 3.99 µM
- TGI (SF-268 CNS): 17.6 µM
- GI50 (NCI-H23 lung): 1.54 µM
- TGI (NCI-H23 lung): 12.2 µM
- GI50 (HOP-92 NSCLC): 1.16 µM
- TGI (HOP-92 NSCLC): 4.92 µM
- GI50 (UACC-62 melanoma): 1.67 µM
- TGI (UACC-62 melanoma): 9.52 µM
- GI50 (A498 renal): 0.323 µM
- TGI (A498 renal): 3.43 µM
- GI50 (KM12 colon): 0.0444 µM
- TGI (KM12 colon): 11.7 µM
- GI50 (MCF7 breast): 3.28 µM
- TGI (MCF7 breast): 15.7 µM
- GI50 (HOP-62 NSCLC): 2.53 µM
- TGI (HOP-62 NSCLC): 12 µM
- GI50 (UO-31 renal): 1.25 µM
- TGI (UO-31 renal): 6.35 µM
- GI50 (MDA-MB-435): 2.03 µM
- TGI (MDA-MB-435): 12.9 µM
- GI50 (HT29 colon): 1.04 µM
- TGI (HT29 colon): 11.9 µM
- GI50 (NCI/ADR-RES ovarian): 5.34 µM
- TGI (NCI/ADR-RES ovarian): 18.9 µM
- GI50 (MOLT-4 leukemia): 1.18 µM
- TGI (MOLT-4 leukemia): 16 µM
- GI50 (EKVX NSCLC): 3.91 µM
- TGI (EKVX NSCLC): 16.8 µM
- GI50 (SNB-75 CNS): 5.83 µM
- TGI (SNB-75 CNS): 18.8 µM
- GI50 (A549 NSCLC): 3.86 µM
- TGI (A549 NSCLC): 15.5 µM
- GI50 (UACC-257 melanoma): 2.47 µM
- TGI (UACC-257 melanoma): 12.4 µM
- GI50 (BT-549 breast): 7.9 µM
- TGI (BT-549 breast): 20.4 µM
- GI50 (SK-MEL-5 melanoma): 2.95 µM
- TGI (SK-MEL-5 melanoma): 13.6 µM
- GI50 (SNB-19 CNS): 10.5 µM
- TGI (SNB-19 CNS): 22.3 µM
- GI50 (IGROV1 ovarian): 1.16 µM
- TGI (IGROV1 ovarian): 7.45 µM
- GI50 (MDA-MB-231 breast): 1.07 µM
- TGI (MDA-MB-231 breast): 3.05 µM
- GI50 (DU-145 prostate): 4.64 µM
- TGI (DU-145 prostate): 16.8 µM
- GI50 (HCT-116 colon): 1.26 µM
- TGI (HCT-116 colon): 11.5 µM
- GI50 (RPMI-8226 leukemia): 3.59 µM
- TGI (RPMI-8226 leukemia): 22.2 µM
- TGI (K-562 leukemia): 11.4 µM
- GI50 (SK-MEL-2 melanoma): 0.542 µM
- TGI (SK-MEL-2 melanoma): 2.48 µM
- GI50 (TK-10 renal): 4.18 µM
- TGI (TK-10 renal): 15.4 µM
- GI50 (OVCAR-5 ovarian): 1.8 µM
- TGI (OVCAR-5 ovarian): 14 µM
- GI50 (OVCAR-3 ovarian): 6.32 µM
- TGI (OVCAR-3 ovarian): 19.2 µM
- GI50 (RXF 393 renal): 1.77 µM
- TGI (RXF 393 renal): 6.46 µM
- GI50 (OVCAR-8 ovarian): 4.53 µM
- TGI (OVCAR-8 ovarian): 18.3 µM
- GI50 (COLO 205 colon): 1.11 µM
- TGI (COLO 205 colon): 13.2 µM
- GI50 (SR leukemia): 3.23 µM
- TGI (SR leukemia): 34.6 µM
- GI50 (NCI-H522 lung): 3.11 µM
- TGI (NCI-H522 lung): 17 µM
- GI50 (NCI-H226 lung): 0.467 µM
- TGI (NCI-H226 lung): 11.8 µM
- GI50 (SW-620 colon): 1.83 µM
- TGI (SW-620 colon): 10.4 µM
- GI50 (T-47D breast): 10.9 µM
- TGI (T-47D breast): 27.3 µM
- GI50 (M14 melanoma): 0.961 µM
- TGI (M14 melanoma): 5.09 µM
- GI50 (SF-295 CNS): 3.72 µM
- TGI (SF-295 CNS): 15.8 µM
- GI50 (NCI-H460 lung): 2.5 µM
- TGI (NCI-H460 lung): 11.8 µM
- GI50 (SK-OV-3 ovarian): 2.89 µM
- TGI (SK-OV-3 ovarian): 11.3 µM
- GI50 (CAKI-1 renal): 4.74 µM
- TGI (CAKI-1 renal): 16.4 µM
- GI50 (SK-MEL-28 melanoma): 1.23 µM
- TGI (SK-MEL-28 melanoma): 10.7 µM
- GI50 (LOX IMVI melanoma): 0.794 µM
- TGI (LOX IMVI melanoma): 2.11 µM
- GI50 (SF-539 CNS): 0.829 µM
- TGI (SF-539 CNS): 2.96 µM
- GI50 (PC-3 prostate): 5.5 µM
- TGI (PC-3 prostate): 24 µM
- GI50 (U251 CNS): 9.49 µM
- TGI (U251 CNS): 21.8 µM
- GI50 (HS 578T breast): 1.36 µM
- TGI (HS 578T breast): 7.93 µM
- GI50 (CCRF-CEM leukemia): 3.27 µM
- TGI (CCRF-CEM leukemia): 34.8 µM
- GI50 (786-0 renal): 9.81 µM
- TGI (786-0 renal): 22.2 µM
- GI50 (MALME-3M melanoma): 0.284 µM
- TGI (MALME-3M melanoma): 1.05 µM
- GI50 (ACHN renal): 1.36 µM
- TGI (ACHN renal): 10.5 µM
- GI50 (HL-60(TB) leukemia): 0.303 µM
- TGI (HL-60(TB) leukemia): 2.02 µM
- GI50 (HCT-15 colon): 3.9 µM
- TGI (HCT-15 colon): 14.7 µM
- GI50 (HCC-2998 colon): 2.46 µM
- TGI (HCC-2998 colon): 17.6 µM
- GI50 (SN12C renal): 2.59 µM
- TGI (SN12C renal): 11.8 µM
